Laboratory results from paper PMC12916490 (Molecular Psychiatry, 2025).

What was measured:
h5-HT2A = h5-HT2A (Homo sapiens, UniProt P28223); assay: β-arrestin 2 recruitment (NanoBiT), h5-HT2A; format: cell-based; design: expressed in transfected cells; conditions: for Emax: read-out: β-arrestin 2 recruitment Emax h5-HT2A (95% CI)
Procedure: Activation of h5-HT2A, h5-HT2B, and h5-HT2C receptors was examined by measuring the accumulation of inositol monophosphate (IP1) as a marker for Gαq-mediated signaling. For h5-HT2A, additional assays measured β-arrestin 2 recruitment and arachidonic acid release, the latter serving as a marker of Gαi/o,12/13 activation. The methodology is described in detail in the Supplementary information.
The IC50 values from the radioligand binding assays were determined by nonlinear regression, using three independent concentration-response curves fitted to a one-site model. The Cheng-Prusoff equation was used to calculate Kᵢ values for the competing ligands. EC50 values were determined by applying nonlinear regression to concentration-response curves. Bias factors (β) were calculated based on the relative intrinsic activity approach. More detailed information can be found in the Supplementary information. Mean values for total number of HTR, change in body temperature from pre to post session (Δ°C), and total distance traveled (cm) for each drug dose were compared (p < 0.05) via Welch’s ANOVA with Dunnett’s T3 post test, comparing all doses to respective vehicle controls (0 mg/kg). Welch’s ANOVA with Dunnett’s T3 post test was also used to compare drug concentrations, but the data were compared to DOM in this case. Dose–response relationships for HTR and locomotor activities were plotted using bell-shaped curve fits, while temperature change data were plotted using four-parameter non-linear regression curve fits. The ascending phase of the HTR curve for each drug was used to determine ED50 potency values from four parameter non-linear regression fits. For combined DOM and DOAM administration, the plasma, brain tissue, and brain dialysate drug concentrations were compared using paired t-tests (p < 0.05). […]
the β-arrestin 2 molecule in the NanoBiT system) were seeded at a density of 50,000 cells per well in poly - D-lysine-coated 96-well plates in medium containing 10% dialyzed FBS. The plate was then incubated at […]
The following day, the cells were washed twice with 150 µL HBSS, and 100 µL HBSS was subsequently added to each well. Thereafter, 25 µL of substrate (1 :20 diluted in buffer) was added, and […]
agonist solutions was added, and the signal was monitored for 2 h. Drug dilutions in HBSS were made from 10 mM stock solutions in DMSO , yielding concentration ranges from 10 µM to 10 pM. All concentrations were run in duplicate and included the appropriate solvent controls. Efficacy was normalized to 5 -HT […]
3.2.3 Arachidonic acid release
Arachidonic acid release was assessed as a marker for Gαi/o,12/13 mediated signaling.
NIH/3T3 cells stably expressing the 5 -HT2A receptor were seeded at a density of 75,000 cells per well in a poly-D-lysine-coated 48-well plate. The following day, the cells were labeled with 300 μL [ 3H]arachidonic […]
Thereafter, the cells were washed 3 times for
(10 mM) of test substances were prepared in DMSO. The final dilution series of test substances dissolved […]
Thereafter, the plate was put on ice, and 400 μL incubation supernatant per well was transferred int o scintillation vials containing scintillation fluid (Ultimagold, Perkin Elmer, Schwerzenbach, Switzerland). The remaining supernatant was removed, and the cells were lysed with 1% sodium dodecyl sulfate lysis buffer. The obtained cell lysate was transferred into scintillation vials containing scintillation fluid. Radioactivity was measured on a liquid scintillation counter (Packard 1900 TR Tri-Carb Liquid Scintillation Counter; Packard Instrument Company). Efficacy was normalized to 5-HT activity.
3.2.4 Calculation of bias factors […]
using 5-HT as the reference agonist.
RApathway = EC50, i = EC50, ref×Emax,i […]

hNET = biological target: T1, hNET (Homo sapiens, UniProt P23975); assay: Radioligand binding, hNET (N-methyl-[3H]nisoxetine)
T1 construct: expressed in transfected cells; host or cells: HEK 293 cells (membrane preparation)
Procedure: Binding affinities at human monoamine receptors and transporters were assessed as previously reported. A detailed description of the methodology is provided in the Supplementary information.
The IC50 values from the radioligand binding assays were determined by nonlinear regression, using three independent concentration-response curves fitted to a one-site model. The Cheng-Prusoff equation was used to calculate Kᵢ values for the competing ligands. EC50 values were determined by applying nonlinear regression to concentration-response curves. Bias factors (β) were calculated based on the relative intrinsic activity approach. More detailed information can be found in the Supplementary information. Mean values for total number of HTR, change in body temperature from pre to post session (Δ°C), and total distance traveled (cm) for each drug dose were compared (p < 0.05) via Welch’s ANOVA with Dunnett’s T3 post test, comparing all doses to respective vehicle controls (0 mg/kg). Welch’s ANOVA with Dunnett’s T3 post test was also used to compare drug concentrations, but the data were compared to DOM in this case. Dose–response relationships for HTR and locomotor activities were plotted using bell-shaped curve fits, while temperature change data were plotted using four-parameter non-linear regression curve fits. The ascending phase of the HTR curve for each drug was used to determine ED50 potency values from four parameter non-linear regression fits. For combined DOM and DOAM administration, the plasma, brain tissue, and brain dialysate drug concentrations were compared using paired t-tests (p < 0.05).
3.1 Assessment of receptor and transporter binding affinities
Membrane preparations were prepared from cells transfected with the respective target. The membrane preparations were then incubated with selective radioligands at concentrations equal to the corresponding Kd and displacement of the ligand by the drugs was measured. The difference between total binding and nonspecific binding (determined in the presence of selective competitors) was defined as specific binding of the radioligand to the target receptor. The following transfected cell lines were used for the binding assays: HEK 293 cells (h5-HT1A, h5-HT2A, h5-HT2B, h5-HT2C, and hD2 receptors, hDAT, hNET, and hSERT), Chinese hamster ovary cells (hα 1A receptor), and Chinese hamster lung cells (hα 2A receptor).
3.1.1 Membrane preparations for receptor and transporter binding
For producing membrane preparations, transfected cells were harvested with trypsin/EDTA, washed with ice-cold phosphate buffered saline, and then pelleted by centrifugation (210 × g for 5 min at 4 °C). The pellets were frozen and stored at -80 °C until use. Frozen pellets were resuspended in 20 m L (receptor binding) or 400 m L (transporter binding) buffer (20 mM HEPES -NaOH, 10 mM EDTA, pH 7.4), and homogenized at 1,100 × g for 20 s (receptor binding) or 560 × g for 15 s (transporter binding); the homogenates were then centrifuged at 48,000 × g for 30 min at 4 °C. For receptor binding assays, the supernatants were discarded and the pellets were resuspended in 20 mL buffer (20 mM HEPES-NaOH, 0.1 mM EDTA, pH 7.4) and homogenized at 1 ,100 × g for 20 s. Centrifugation and discarding of the supernatant were repeated once, and the final pellet was then resuspended in buffer and homogenized.
3.1.2 Serotonin 5-HT1A and 5-HT2A receptor binding
Competitive binding at the h5-HT1A and h5-HT2A receptor was determined using 0.90 nM [ 3H]8-hydroxy-2-(di-n-propylamine)tetralin ([ 3H]8-OH-DPAT; h5-HT1A receptor agonist) and 0.40 nM [3H]ketanserin (h5-HT2 receptor antagonist) as radioligands. […]
binding of the radioligands was defined as difference between total binding (binding buffer alone) and nonspecific binding determined in the presence of 10 μM pindolol (h5-HT1A receptor antagonist) or 10 μM spiperone (h 5-HT2A receptor antagonist).

h5-HT2A, sequence (P28223 whole entry, looked up): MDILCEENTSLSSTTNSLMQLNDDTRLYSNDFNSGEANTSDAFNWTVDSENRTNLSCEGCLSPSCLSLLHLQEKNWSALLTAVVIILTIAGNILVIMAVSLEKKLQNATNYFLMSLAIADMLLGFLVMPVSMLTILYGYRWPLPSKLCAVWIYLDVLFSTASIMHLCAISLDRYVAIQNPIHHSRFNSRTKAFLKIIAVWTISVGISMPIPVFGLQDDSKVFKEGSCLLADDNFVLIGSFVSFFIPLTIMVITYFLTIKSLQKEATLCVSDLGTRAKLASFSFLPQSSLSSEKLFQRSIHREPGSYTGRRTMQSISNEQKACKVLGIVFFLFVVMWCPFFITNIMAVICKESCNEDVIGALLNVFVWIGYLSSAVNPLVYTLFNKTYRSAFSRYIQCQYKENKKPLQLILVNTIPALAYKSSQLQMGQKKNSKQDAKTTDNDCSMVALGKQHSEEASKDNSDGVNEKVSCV
T1 sequence (P23975 whole entry): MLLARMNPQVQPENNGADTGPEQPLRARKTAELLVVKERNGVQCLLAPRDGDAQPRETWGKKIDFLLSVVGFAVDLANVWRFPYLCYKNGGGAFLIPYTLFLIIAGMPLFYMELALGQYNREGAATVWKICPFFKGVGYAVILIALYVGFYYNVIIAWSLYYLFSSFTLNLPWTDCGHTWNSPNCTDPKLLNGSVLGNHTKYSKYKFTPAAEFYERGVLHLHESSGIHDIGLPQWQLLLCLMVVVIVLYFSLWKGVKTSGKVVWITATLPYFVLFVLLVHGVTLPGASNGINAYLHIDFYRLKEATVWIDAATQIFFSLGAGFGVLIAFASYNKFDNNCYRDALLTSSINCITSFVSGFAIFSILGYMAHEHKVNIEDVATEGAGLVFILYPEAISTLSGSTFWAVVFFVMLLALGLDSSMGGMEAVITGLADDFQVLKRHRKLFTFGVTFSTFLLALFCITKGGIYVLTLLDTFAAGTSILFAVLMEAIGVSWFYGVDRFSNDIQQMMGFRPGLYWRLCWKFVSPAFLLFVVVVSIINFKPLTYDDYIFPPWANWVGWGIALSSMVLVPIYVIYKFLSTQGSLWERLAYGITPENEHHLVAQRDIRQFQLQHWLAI

| SMILES | Emax (h5-HT2A) [%] | Ki (hNET) [nM] | Agonist type in the β-arrestin 2 recruitment assay at the 5-HT2A receptor (h5-HT2A) | EC50 (h5-HT2A) [nM] |
| --- | --- | --- | --- | --- |
| COc1ccc(OC)c(CC(C)N)c1.Cl (stereo not drawn) [2,5-DMA, 2,5-Dimethoxyamphetamine hydrochloride] | 83 | > 8000 |  |  |
| CCCc1cc(OC)c(CC(C)N)cc1OC.Cl (stereo not drawn) [DOPR, 4-propyl-2,5-dimethoxyamphetamine hydrochloride] | 105 | > 8000 | full agonists | 9.3 |
| COc1cc(CC(C)N)c(OC)cc1C (stereo not drawn) [DOM, 4-methyl-2,5-dimethoxyamphetamine] | 97 | > 8000 | full agonists | 55 |
| CCCCc1cc(OC)c(CC(C)N)cc1OC (stereo not drawn) [DOBU, 4-butyl-2,5-dimethoxyamphetamine] | 96 | > 8000 | full agonists | 24 |
| CCc1cc(OC)c(CC(C)N)cc1OC (stereo not drawn) [DOET, 4-ethyl-2,5-dimethoxyamphetamine] | 99 | > 8000 | full agonists | 12 |
| CCCCCc1cc(OC)c(CC(C)N)cc1OC (stereo not drawn) [DOAM, 4-amyl-2,5-dimethoxyamphetamine] | 85 | > 8000 |  | 56 |
